For the data set the following is noted: electrodes comprising the ionic liquid in the reference electrode membrane; ISO 10993-5:2009 (E) and ISO 10993-12:2021 (E). How it is done: An evaluation of the acute cytotoxicity of the reference electrode components was performed.
Cytotoxicity-based biocompatibility tests were performed according to the procedures of ISO 10993-5:2009 (E) and ISO 10993-12:2021 (E) standards.

“Also recorded” adds a separate entry of the source.

Regarding “1-ethyl-3-methylimidazolium bis(trifluoromethyl sulfonyl)imide”, the acute cytotoxicity result is recorded as “no significant toxicity; also recorded: lowest cytotoxicity”. The entry for `CC(=O)[O-].CCCCn1cc[n+](C)c1` [1-butyl-3-methylimidazolium acetate] is “no significant toxicity”; for `CCCCn1cc[n+](C)c1.[Cl-]` [1-butyl-3-methylimidazolium chloride] it is “no significant toxicity”.

On to `CCCCn1cc[n+](C)c1.F[P-](F)(F)(F)(F)F` [1-butyl-3-methylimidazolium hexafluorophosphate], for which the acute cytotoxicity result is “no significant toxicity”. The same measure for choline acetate: “no significant toxicity”; for choline phosphate: “no significant toxicity”.
